# Measurements: US12655472B2, “Microbe detection method using fish analysis” (priority 2020, dated 2026)
# Experiments:
# E. coli K-12 = assay: Antibiotic susceptibility evaluation through FISH analysis (ratio of test microorganisms after about 1 hour culturing); type: cell-based
# Experimental: (§1) In this example, a total of two experiments were conducted on each of E. coli K-12 bacteria as test microorganisms having antibiotic susceptibility, and E. coli ER7 bacteria as test microorganisms having antibiotic resistance, and each group was set to include E. faecalis bacteria having resistance to Cefotaxime.
# (§2) The number or ratio of initial microorganisms in the first microbial group, the second microbial group, and the third microbial group was set identically.
# (§3) In an embodiment, E. coli K-12 bacteria, antibiotic-resistant E. coli ER7 bacteria, and E. faecalis resistant to cefotaxime were used, and each strain was cultured up to OD 600=0.5 to obtain a sample containing the test microorganisms. On the other hand, after treating the sample with antibiotics, the amount of the test microorganisms was quantified by imaging at OD 600. In this case, the imaging process was performed by centrifugation at 3,000 g for 3 min, concentrating the sample 10-fold and fixing the same on a glass substrate coated with Vectabond.
# (§4) To fix bacterial samples, a 50:1 solution of acetone and Vectabond was dropped onto a sample dish. Next, the sample dish was incubated at room temperature for 5 minutes, and washed 2 to 3 times with tertiary water, and then the water was completely removed therefrom. Thereafter, the test microorganisms samples of Example 6 were dropped on the coated sample dish, and incubated at room temperature for 30 minutes, and the remaining sample was washed three times. Next, a 3.7% formaldehyde solution was dropped on the sample dish on which the sample was fixed, and then the fixation was performed for 30 minutes at room temperature. Afterwards, it was washed 2 to 3 times with nuclease-free tertiary water. […] Finally, after immersing the sample in a 2×SSC solution diluted with nuclease-free tertiary […], a fluorescence image of the sample was acquired using a confocal fluorescence microscope.
# E. faecalis = assay: as above; type: cell-based; settings: first microbial group treated and cultured with antibiotics
# Experimental: as §1, §2, §3, §4
smiles,measurement,setting,value
CO/N=C(\C(=O)N[C@@H]1C(=O)N2C(C(=O)O)=C(COC(C)=O)CS[C@H]12)c1csc(N)n1 [cefotaxime],number of population of E. coli K-12,"E. coli K-12; first microbial group treated and cultured with antibiotics, about 1 hour",rapidly reduced
same,ratio of E. coli and E. faecalis,"E. coli K-12; first microbial group, mixed E. coli and E. faecalis sample treated with antibiotic and cultured for 1 hour",ratio of E. coli and E. faecalis changed
same,growth of E. faecalis,E. faecalis,continued to grow
